The nature of data set [1]: refractive index (Na D-line) (dimensionless); wn = mass fraction of the nth substance listed. The conditions noted are these: 101 kPa, Liquid, w2 = 0.
Data set [2] in a line: wn = mass fraction of the nth substance listed. The conditions noted are these: 101 kPa, Liquid, w2 = 0.

Each structure is given as a SMILES string. Numbers after ± are expanded uncertainties.

A word on the refractive index: it is the speed of light in vacuum divided by its phase velocity in the sample. A word on the viscosity: it is the resistance of a fluid to flow. Regarding `O` [water] + O=C([O-])[C@H](O)[C@@H](O)C(=O)[O-].[Na+].[Na+], the refractive index in data set [1] (298.15 K) is reported as 1.3325 ± 0.0007; in data set [1] (308.15 K) it was 1.3313 ± 0.0007; in data set [1] (318.15 K), 1.33 ± 0.0007. Further, the viscosity in data set [2] (298.15 K) was found to be 0.89 ± 0.023 mPa·s; in data set [2] (308.15 K), 0.729 ± 0.019 mPa·s; in data set [2] (318.15 K), 0.6 ± 0.017 mPa·s.

(Values after the NIST ThermoML archive (doi:10.1021/je050498q).)
